Where “and” joins values, the source holds several entries; their conditions need not be identical. Equal values may be shown once.
What was measured:
[1] = Paramagnetic relaxation properties in human plasma at 37°C; type: physicochemical; conditions: for T₂ value / T₁ value / R₁ / R₂ / T₁ changed by (repeat measurement) / T₂ changed by (repeat measurement): 37°C; for T₁ value: triplicate; for T₁ changed by (repeat measurement) / T₂ changed by (repeat measurement): repeat measurement 80 minutes later; for T₂ relaxivity in plasma, fold greater than GdDTPA: versus GdDTPA; for T₁ relaxivity in plasma, fold greater than GdDTPA: versus gadolinium diethylenetriaminepentaacetic acid chelate (GdDTPA)
[2] = Paramagnetic relaxation properties in water at 10 MHz (0.15T), RADX spin analyzer; type: physicochemical; conditions: 10 MHz (0.15T); for spin-lattice (T₁) relaxation value / spin-spin (T₂) relaxation value: 37°C, triplicate, mean +/- SD; for millimolar relaxivity for T₁ / millimolar relaxivity for T₂: in water; for millimolar relaxivity for T₁: calculated from T₁ and concentration; for millimolar relaxivity for T₂: calculated from T₂ and concentration
Experimental: The paramagnetic relaxation properties of [manganese(II)·(H₂O)₂·(L-alanine)₂]⁺²(Cl₂)⁻² in water were measured at 10 MHz (0.15T) with a spin analyzer (RADX; Houston, TX) at 37°C. After thermal equilibrium, the spin-lattice (T₁) and spin-spin (T₂) relaxation values were measured in triplicate.
The paramagnetic relaxation of the title compound in water was measured at 10 MHz (0.15T) with a spin analyzer (RADX; Houston, TX). After thermal equilibrium, the spin-lattice (T₁) and spin-spin (T₂) relaxation values were measured.
Relaxivity was measured at 10 MHz (0.15T) as described in Example 10.
The relaxivity of the title compound was performed at 0.15 T (10 MHz) with a RADX Spin Analyzer (Houston, TX) at 37°C.

[3] = Plasma clearance: plasma T₁ and T₂ times after injection; type: in vivo; conditions: rabbit, 0.1 mmole/kg; for plasma T₁ / plasma T₂: 0.15 T
Experimental: A dose of 0.1 mmole/kg of GdDTPA was injected into a rabbit and blood samples were drawn at 10 min intervals for 50 min. The blood was centrifuged, and the plasma T₁ and T₂ times were measured at 0.15 T with a RADX PROTON SPIN ANALYZER (Houston, TX).

R₁ [1] | R₂ [1] | T₁ changed by (repeat measurement) [1] | T₂ changed by (repeat measurement) [1] | T₂ relaxivity in plasma, fold greater than GdDTPA [1] | T₁ relaxivity in plasma, fold greater than GdDTPA [1] | millimolar relaxivity for T₁ [2] | millimolar relaxivity for T₂ [2] | T₂ value ([1]; 92 µM final concentration) | T₁ value ([1]; 92 µM final concentration) | spin-lattice (T₁) relaxation value ([2]; 0.97 mM solution in water) | spin-spin (T₂) relaxation value ([2]; 0.97 mM solution in water) | Compound | further results
46.3 mM⁻¹ s⁻¹ | 59.7 mM⁻¹ s⁻¹ | 2% | 2% | 12.4 fold | 9.65 fold | 9.84 mM⁻¹ s⁻¹ | 39.0 mM⁻¹ s⁻¹ | – | – | – | – | N[C@@H](Cc1ccccc1)C(=O)O.N[C@@H](Cc1ccccc1)C(=O)O.O.O.[Cl-].[Cl-].[Mn+2] [[Manganese(II)·(H₂O)₂·(L-phenylalanine)₂]⁺²(Cl₂)⁻²] | T₂ value ([1]; 90 µM final concentration): 186 ± 7 ms; T₁ value ([1]; 90 µM final concentration): 240 ± 10 ms; spin-lattice (T₁) relaxation value ([2]; 0.95 mM solution in water): 107 ± 5 ms; spin-spin (T₂) relaxation value ([2]; 0.95 mM solution in water): 27 ± 1 ms
45.1 mM⁻¹ s⁻¹ | 55.5 mM⁻¹ s⁻¹ | 1% | 11% | 11.6 fold | 9.4 fold | 9.82 mM⁻¹ s⁻¹ | 36.8 mM⁻¹ s⁻¹ | 196 ± 17 ms | 241 ± 7 ms | 105 ± 1 ms | 28 ± 1 ms | C[C@@H](O)[C@H](N)C(=O)O.C[C@@H](O)[C@H](N)C(=O)O.O.O.[Cl-].[Cl-].[Mn+2] [Manganese(II)·(H₂O)₂·(L-threonine)₂]⁺²(Cl₂)⁻²] | –
45.2 mM⁻¹ s⁻¹ | 56.9 mM⁻¹ s⁻¹ | 3% | 2% | 11.9 fold | 9.4 fold | 9.19 mM⁻¹ s⁻¹ | 37.8 mM⁻¹ s⁻¹ | – | – | – | – | N[C@@H](CO)C(=O)O.N[C@@H](CO)C(=O)O.O.O.[Cl-].[Cl-].[Mn+2] [Manganese(II)·(H₂O)₂·(L-serine)₂]⁺²(Cl₂)⁻²] | T₂ value ([1]; 93 µM final concentration): 189 ± 6 ms; T₁ value ([1]; 93 µM final concentration): 238 ± 9 ms; spin-lattice (T₁) relaxation value ([2]; 0.989 mM solution in water): 111 ± 2 ms; spin-spin (T₂) relaxation value ([2]; 0.989 mM solution in water): 27 ± 1 ms
45.5 mM⁻¹ s⁻¹ | 58.5 mM⁻¹ s⁻¹ | 7% | 2% | 12.2 fold | 9.5 fold | 9.09 mM⁻¹ s⁻¹ | 36.7 mM⁻¹ s⁻¹ | – | – | – | – | NC(=O)C[C@H]([NH3+])C(=O)[O-].NC(=O)C[C@H]([NH3+])C(=O)[O-].O.O.[Cl-].[Cl-].[Mn+2] [Manganese(II)·(H₂O)₂·(L-asparginine)₂]⁺²(Cl₂)⁻²] | T₂ value ([1]; 90 µM final concentration): 190 ± 3 ms; T₁ value ([1]; 90 µM final concentration): 244 ± 20 ms; spin-lattice (T₁) relaxation value ([2]; 0.94 mM solution in water): 117 ± 5 ms; spin-spin (T₂) relaxation value ([2]; 0.94 mM solution in water): 29 ± 1 ms
46.3 mM⁻¹ s⁻¹ | 61.2 mM⁻¹ s⁻¹ | did not change | 3% | 12.8 fold | 9.7 fold | 9.58 mM⁻¹ s⁻¹ | 39.7 mM⁻¹ s⁻¹ | – | – | – | – | N[C@@H](CC(=O)O)C(=O)O.N[C@@H](CC(=O)O)C(=O)O.O.O.[Cl-].[Cl-].[Mn+2] [Manganese(II)·(H₂O)₂·(L-aspartic acid)₂]⁺²(Cl₂)⁻²] | T₂ value ([1]; 86 µM final concentration): 190 ± 12 ms; T₁ value ([1]; 86 µM final concentration): 251 ± 12 ms; spin-lattice (T₁) relaxation value ([2]; 0.90 mM solution in water): 116 ± 3 ms; spin-spin (T₂) relaxation value ([2]; 0.90 mM solution in water): 28 ± 1 ms
43.5 mM⁻¹ s⁻¹ | 56.9 mM⁻¹ s⁻¹ | 4% | 4% | 11.9 fold | 9.1 fold | 9.12 mM⁻¹ s⁻¹ | 39.7 mM⁻¹ s⁻¹ | 191 ± 8 ms | 250 ± 2 ms | 113 ± 10 ms | 26 ± 1 ms | CC(C)[C@H](N)C(=O)O.CC(C)[C@H](N)C(=O)O.O.O.[Cl-].[Cl-].[Mn+2] [Manganese(II)·(H₂O)₂·(L-valine)₂]⁺²(Cl₂)⁻²] | –
44.0 mM⁻¹ s⁻¹ | 57.2 mM⁻¹ s⁻¹ | 4% | 1% | 11.9 fold | 9.2 fold | 9.82 mM⁻¹ s⁻¹ | 41.2 mM⁻¹ s⁻¹ | 190 ± 17 ms | 247 ± 14 ms | 105 ± 4 ms | 25 ± 1 ms | N[C@@H](CS)C(=O)O.N[C@@H](CS)C(=O)O.O.O.[Cl-].[Cl-].[Mn+2] [Manganese(II)·(H₂O)₂·(L-cysteine)₂]⁺²(Cl₂)⁻²] | –
46.4 mM⁻¹ s⁻¹ | 55.4 mM⁻¹ s⁻¹ | 6% | 4% | 11.5 fold | 9.7 fold | 9.19 mM⁻¹ s⁻¹ | 39.3 mM⁻¹ s⁻¹ | – | – | – | – | C[NH2+]CC(=O)[O-].C[NH2+]CC(=O)[O-].O.O.[Cl-].[Cl-].[Mn+2] [Manganese(II)·(H₂O)₂·(L-sarcosine)₂]⁺²(Cl₂)⁻²] | T₂ value ([1]; 93 µM final concentration): 194 ± 16 ms; T₁ value ([1]; 93 µM final concentration): 232 ± 2 ms; spin-lattice (T₁) relaxation value ([2]; 0.98 mM solution in water): 111 ± 2 ms; spin-spin (T₂) relaxation value ([2]; 0.98 mM solution in water): 26 ± 1 ms
– | – | – | – | – | – | – | – | – | – | – | – | O=C([O-])CN(CCN(CC(=O)[O-])CC(=O)O)CCN(CC(=O)[O-])CC(=O)O.[Gd+3] [GdDTPA, gadolinium diethylenetriaminepentaacetic acid chelate, reference compound] | time for which the plasma T₁ was maintained below 300 [3]: 10 min; plasma T₁ ([3]; 0 min (baseline)): 1380 ms; plasma T₂ ([3]; 0 min (baseline)): 588 ms; plasma T₁ ([3]; 10 min): 259 ms and 269 ms; plasma T₂ ([3]; 10 min): 245 ms; plasma T₁ ([3]; 20 min): 349 ms; plasma T₂ ([3]; 20 min): 287 ms; plasma T₁ ([3]; 30 min): 348 ms; plasma T₂ ([3]; 30 min): 283 ms; plasma T₁ ([3]; 40 min): 352 ms; plasma T₂ ([3]; 40 min): 270 ms; plasma T₁ ([3]; 50 min): 340 ms; plasma T₂ ([3]; 50 min): 298 ms

Compound | R₁ [1] | R₂ [1] | T₁ changed by (repeat measurement) [1] | T₂ changed by (repeat measurement) [1] | T₂ relaxivity in plasma, fold greater than GdDTPA [1] | T₁ relaxivity in plasma, fold greater than GdDTPA [1] | millimolar relaxivity for T₁ [2] | millimolar relaxivity for T₂ [2] | T₂ value ([1]; 92 µM final concentration) | T₁ value ([1]; 92 µM final concentration) | spin-lattice (T₁) relaxation value ([2]; 0.97 mM solution in water) | spin-spin (T₂) relaxation value ([2]; 0.97 mM solution in water) | further results
N[C@@H](Cc1ccc(O)cc1)C(=O)O.N[C@@H](Cc1ccc(O)cc1)C(=O)O.O.O.[Cl-].[Cl-].[Mn+2] [[Manganese(II)·(H₂O)₂·(L-tyrosine)₂]⁺²(Cl₂)⁻²] | 49.3 mM⁻¹ s⁻¹ | 71.6 mM⁻¹ s⁻¹ | 5% | 9% | 14.8 fold | 10.3 fold | 9.94 mM⁻¹ s⁻¹ | 38.7 mM⁻¹ s⁻¹ | – | – | – | – | T₂ value ([1]; 65 µM final concentration): 216 ± 2 ms; T₁ value ([1]; 65 µM final concentration): 312 ± 20 ms; spin-lattice (T₁) relaxation value ([2]; 0.68 mM solution in water): 148 ± 1 ms; spin-spin (T₂) relaxation value ([2]; 0.68 mM solution in water): 38 ± 1 ms
O.O.O=C(O)[C@@H]1C[C@@H](O)CN1.O=C(O)[C@@H]1C[C@@H](O)CN1.[Cl-].[Cl-].[Mn+2] [[Manganese(II)·(H₂O)₂·(L-hydroxyproline)₂]⁺²(Cl₂)⁻²] | 43.7 mM⁻¹ s⁻¹ | 56.9 mM⁻¹ s⁻¹ | did not change | 1% | 11.9 fold | 9.1 fold | 9.19 mM⁻¹ s⁻¹ | 39.3 mM⁻¹ s⁻¹ | – | – | – | – | T₂ value ([1]; 93 µM final concentration): 189 ± 9 ms; T₁ value ([1]; 93 µM final concentration): 246 ± 13 ms; spin-lattice (T₁) relaxation value ([2]; 0.98 mM solution in water): 111 ± 3 ms; spin-spin (T₂) relaxation value ([2]; 0.98 mM solution in water): 26 ± 1 ms
N=C(N)NCCC[C@H](N)C(=O)O.N=C(N)NCCC[C@H](N)C(=O)O.O.O.[Cl-].[Cl-].[Mn+2] [[Manganese(II)·(H₂O)₂·(L-arginine)₂]⁺²(Cl₂)⁻²] | 24.8 mM⁻¹ s⁻¹ | 37.9 mM⁻¹ s⁻¹ | 8% | 22% | 7.9 fold | 5.2 fold | 2.96 mM⁻¹ s⁻¹ | 10.6 mM⁻¹ s⁻¹ | 287 ± 11 ms | 439 ± 27 ms | 348 ± 7 ms | 97 ± 4 ms | –

Reference: EP0308983A2, “NMR imaging with Mn(II) coordination compositions” (priority 1987, dated 1989)
